Data as given in ChEMBL document CHEMBL5154816, “Structure-Based Discovery and Optimization of Furo[3,2-c]pyridin-4(5H)-one Derivatives as Potent and Second Bromodomain (BD2)-Selective Bromo and Extra Terminal Domain (BET) Inhibitors” (J Med Chem, 2022).
Blank lines part the entries; values can stand above or below the compound they belong to.

Columns and labels:
[1] = biological target: T1, Bromodomain-containing protein 3 (Homo sapiens, UniProt Q15059); assay: Inhibition of C-terminal His6-tagged BRD3 BD2 (unknown origin) using H-YSGRGK(Ac)GGK(Ac)GLGK(Ac)-GGAK(Ac)RHRK-Biotin-OH as substrate incubated for 1 hrs by HTRF assay
[2] = Metabolic stability in rat liver microsomes assessed as intrinsic clearance at 1 uM measured up to 60 mins in presence of NADPH by HPLC-MS/MS analysis; type: ADME, Microsome; details: 1 h
MOLM-13 = assay: Antiproliferative activity against human MOLM-13 cells assessed as cell growth inhibition incubated for 72 hrs by Cell titre Glo-luminiscence cell viability assay; type: functional, cell-based; details: MOLM-13, 72 h
MDA-MB-231 = assay: Antiproliferative activity against human MDA-MB-231 cells assessed as cell growth inhibition incubated for 96 hrs by Cell titre Glo-luminiscence cell viability assay; type: functional, cell-based; details: MDA-MB-231, 96 h
[3] = Metabolic stability in rat hepatocytes assessed as hepatic clearance at 1 uM measured up to 60 mins in presence of NADPH by HPLC-MS/MS analysis; type: ADME, cell-based, Hepatocyte
[4] = biological target: T1, Bromodomain-containing protein 3; assay: Binding affinity to His6-fused BRD3 BD2 (unknown origin) assessed as dissociation constant in PBS incubated for 1 hrs by biolayer interferometry analysis
[5] = biological target: T1, Bromodomain-containing protein 3; assay: Binding affinity to His6-fused human BRD3 BD1 assessed as dissociation constant in PBS incubated for 1 hrs by biolayer interferometry analysis
DU-145 = assay: Antiproliferative activity against AR-negative human DU-145 cells assessed as cell growth inhibition incubated for 72 hrs by Cell titre Glo-luminiscence cell viability assay; type: functional, cell-based; details: DU-145, 72 h
Kasumi 1 = assay: Antiproliferative activity against human Kasumi 1 cells assessed as cell growth inhibition incubated for 72 hrs by Cell titre Glo-luminiscence cell viability assay; type: functional, cell-based; details: Kasumi 1, 72 h
[6] = Metabolic stability in rat liver microsomes assessed as half life at 1 uM measured up to 60 mins in presence of NADPH by HPLC-MS/MS analysis; type: ADME, Microsome
THP-1 = assay: Antiproliferative activity against human THP-1 cells assessed as cell growth inhibition incubated for 72 hrs by Cell titre Glo-luminiscence cell viability assay; type: functional, cell-based; details: THP-1, 72 h
[7] = biological target: T2, Bromodomain-containing protein 2 (Homo sapiens, UniProt P25440); assay: Inhibition of C-terminal His6-tagged BRD2 BD2 (unknown origin) using H-YSGRGK(Ac)GGK(Ac)GLGK(Ac)-GGAK(Ac)RHRK-Biotin-OH as substrate incubated for 1 hrs by HTRF assay
[8] = biological target: T3, Bromodomain testis-specific protein (Homo sapiens, UniProt Q58F21); assay: Binding affinity to His6-fused BRDT BD2 (unknown origin) assessed as dissociation constant in PBS incubated for 1 hrs by biolayer interferometry analysis
CWR22R = assay: Antiproliferative activity against human 22Rv1 cells assessed as cell growth inhibition incubated for 72 hrs by Cell titre Glo-luminiscence cell viability assay; type: functional, cell-based; details: 22Rv1, 72 h
MCF7 = assay: Antiproliferative activity against human MCF7 cells assessed as cell growth inhibition incubated for 96 hrs by Cell titre Glo-luminiscence cell viability assay; type: functional, cell-based; details: MCF7, 96 h
[9] = biological target: Histone acetyltransferase KAT2B (Homo sapiens) (UniProt Q92831); assay: Binding affinity to PCAF (unknown origin) assessed as change in melting temperature at 100 uM incubated for 30 mins by thermal shift assay
[10] = Cytotoxicity against human HFL1 cells assessed as cell growth inhibition incubated for 72 hrs by Cell titre Glo-luminiscence cell viability assay; type: toxicity, cell-based
[11] = biological target: T3, Bromodomain testis-specific protein; assay: Binding affinity to His6-fused BRDT BD1 (unknown origin) assessed as dissociation constant in PBS incubated for 1 hrs by biolayer interferometry analysis
[12] = Metabolic stability in human liver microsomes assessed as half life at 1 uM measured up to 60 mins in presence of NADPH by HPLC-MS/MS analysis; type: ADME, Microsome
[13] = Metabolic stability in human hepatocytes assessed as hepatic clearance at 1 uM measured up to 60 mins in presence of NADPH by HPLC-MS/MS analysis; type: ADME, cell-based, Hepatocyte
BXPC-3 = assay: Antiproliferative activity against human BxPC-3 cells assessed as cell growth inhibition incubated for 72 hrs by Cell titre Glo-luminiscence cell viability assay; type: functional, cell-based; details: BXPC-3, 72 h
U2OS = assay: Antiproliferative activity against human U2OS cells assessed as cell growth inhibition incubated for 72 hrs by Cell titre Glo-luminiscence cell viability assay; type: functional, cell-based
[14] = Metabolic stability in human liver microsomes assessed as intrinsic clearance at 1 uM measured up to 60 mins in presence of NADPH by HPLC-MS/MS analysis; type: ADME, Microsome; details: 1 h
A549 = assay: Antiproliferative activity against human A549 cells assessed as cell growth inhibition incubated for 72 hrs by Cell titre Glo-luminiscence cell viability assay; type: functional, cell-based; details: A549, 72 h
[15] = biological target: T2, Bromodomain-containing protein 2; assay: Binding affinity to His6-fused BRD2 BD2 (unknown origin) assessed as dissociation constant in PBS incubated for 1 hrs by biolayer interferometry analysis
U-937 = assay: Antiproliferative activity against human U-937 cells assessed as cell growth inhibition incubated for 72 hrs by Cell titre Glo-luminiscence cell viability assay; type: functional, cell-based; details: U-937, 72 h
[16] = biological target: T2, Bromodomain-containing protein 2; assay: Binding affinity to His6-fused BRD2 BD1 (unknown origin) assessed as dissociation constant in PBS incubated for 1 hrs by biolayer interferometry analysis
HepG2 = assay: Antiproliferative activity against human HepG2 cells assessed as cell growth inhibition incubated for 72 hrs by Cell titre Glo-luminiscence cell viability assay; type: functional, cell-based; details: HepG2, 72 h
HT-29 = assay: Antiproliferative activity against human HT-29 cells assessed as cell growth inhibition incubated for 120 hrs by Cell titre Glo-luminiscence cell viability assay; type: functional, cell-based; details: HT-29, 120 h
MV4-11 = assay: Antiproliferative activity against human MV4-11 cells assessed as cell growth inhibition incubated for 120 hrs by Cell titre Glo-luminiscence cell viability assay; type: functional, cell-based
[17] = biological target: SWI/SNF-related matrix-associated actin-dependent regulator of chromatin subfamily A member 4 (Homo sapiens) (UniProt P51532); assay: Binding affinity to SMARCA4 (unknown origin) assessed as change in melting temperature at 100 uM incubated for 30 mins by thermal shift assay
[18] = biological target: T4, Bromodomain-containing protein 4 (Homo sapiens, UniProt O60885); assay: Binding affinity to His6-fused BRD4 BD2 (unknown origin) assessed as dissociation constant in PBS incubated for 1 hrs by biolayer interferometry analysis
[19] = biological target: T4, Bromodomain-containing protein 4; assay: Binding affinity to His6-fused BRD4 BD1 (unknown origin) assessed as dissociation constant in PBS incubated for 1 hrs by biolayer interferometry analysis

T2 sequence (P25440 whole entry, the tested form may be a part): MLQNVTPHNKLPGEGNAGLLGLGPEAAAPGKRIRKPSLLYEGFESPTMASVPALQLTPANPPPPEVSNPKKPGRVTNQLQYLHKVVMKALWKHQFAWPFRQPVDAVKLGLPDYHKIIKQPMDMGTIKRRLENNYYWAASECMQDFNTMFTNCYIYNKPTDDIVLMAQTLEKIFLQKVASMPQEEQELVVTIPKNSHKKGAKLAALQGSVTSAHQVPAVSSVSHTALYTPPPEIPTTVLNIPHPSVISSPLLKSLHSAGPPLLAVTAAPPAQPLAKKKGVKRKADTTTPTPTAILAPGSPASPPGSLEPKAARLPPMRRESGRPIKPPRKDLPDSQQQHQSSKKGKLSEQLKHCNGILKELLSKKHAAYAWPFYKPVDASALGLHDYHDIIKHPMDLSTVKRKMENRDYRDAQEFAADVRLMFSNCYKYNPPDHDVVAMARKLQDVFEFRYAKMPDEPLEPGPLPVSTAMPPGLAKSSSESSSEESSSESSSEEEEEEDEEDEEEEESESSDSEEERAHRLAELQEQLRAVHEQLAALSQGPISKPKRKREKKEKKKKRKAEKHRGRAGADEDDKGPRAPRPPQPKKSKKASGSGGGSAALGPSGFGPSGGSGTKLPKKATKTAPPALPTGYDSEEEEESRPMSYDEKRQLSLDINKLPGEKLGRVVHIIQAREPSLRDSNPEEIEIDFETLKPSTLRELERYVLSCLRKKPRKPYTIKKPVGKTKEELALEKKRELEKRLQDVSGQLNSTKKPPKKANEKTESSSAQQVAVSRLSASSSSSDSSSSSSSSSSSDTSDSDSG
Sequence of Histone acetyltransferase KAT2B (Homo sapiens) (Q92831 whole entry, looked up): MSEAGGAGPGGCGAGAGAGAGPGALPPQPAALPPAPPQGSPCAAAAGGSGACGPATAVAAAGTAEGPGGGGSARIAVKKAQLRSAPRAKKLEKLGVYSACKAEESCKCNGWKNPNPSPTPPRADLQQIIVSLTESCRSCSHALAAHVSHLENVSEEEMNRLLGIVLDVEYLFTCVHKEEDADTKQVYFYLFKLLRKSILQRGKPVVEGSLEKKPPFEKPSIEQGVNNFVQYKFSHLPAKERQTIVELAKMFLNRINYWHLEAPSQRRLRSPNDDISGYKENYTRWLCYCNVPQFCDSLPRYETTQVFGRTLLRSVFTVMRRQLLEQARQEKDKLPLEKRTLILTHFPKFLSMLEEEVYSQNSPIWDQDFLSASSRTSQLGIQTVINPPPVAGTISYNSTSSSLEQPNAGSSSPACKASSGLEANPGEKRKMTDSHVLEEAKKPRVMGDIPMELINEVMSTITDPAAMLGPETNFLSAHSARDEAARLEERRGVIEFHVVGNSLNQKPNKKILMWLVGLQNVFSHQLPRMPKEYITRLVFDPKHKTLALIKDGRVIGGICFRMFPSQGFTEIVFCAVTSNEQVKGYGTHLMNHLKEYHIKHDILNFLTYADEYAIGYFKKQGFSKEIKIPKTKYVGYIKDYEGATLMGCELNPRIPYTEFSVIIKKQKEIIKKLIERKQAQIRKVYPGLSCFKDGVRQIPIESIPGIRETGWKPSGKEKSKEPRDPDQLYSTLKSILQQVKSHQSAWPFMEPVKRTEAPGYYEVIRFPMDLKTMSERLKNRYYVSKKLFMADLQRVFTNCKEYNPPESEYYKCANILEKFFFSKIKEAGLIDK
T1 sequence (Q15059 whole entry): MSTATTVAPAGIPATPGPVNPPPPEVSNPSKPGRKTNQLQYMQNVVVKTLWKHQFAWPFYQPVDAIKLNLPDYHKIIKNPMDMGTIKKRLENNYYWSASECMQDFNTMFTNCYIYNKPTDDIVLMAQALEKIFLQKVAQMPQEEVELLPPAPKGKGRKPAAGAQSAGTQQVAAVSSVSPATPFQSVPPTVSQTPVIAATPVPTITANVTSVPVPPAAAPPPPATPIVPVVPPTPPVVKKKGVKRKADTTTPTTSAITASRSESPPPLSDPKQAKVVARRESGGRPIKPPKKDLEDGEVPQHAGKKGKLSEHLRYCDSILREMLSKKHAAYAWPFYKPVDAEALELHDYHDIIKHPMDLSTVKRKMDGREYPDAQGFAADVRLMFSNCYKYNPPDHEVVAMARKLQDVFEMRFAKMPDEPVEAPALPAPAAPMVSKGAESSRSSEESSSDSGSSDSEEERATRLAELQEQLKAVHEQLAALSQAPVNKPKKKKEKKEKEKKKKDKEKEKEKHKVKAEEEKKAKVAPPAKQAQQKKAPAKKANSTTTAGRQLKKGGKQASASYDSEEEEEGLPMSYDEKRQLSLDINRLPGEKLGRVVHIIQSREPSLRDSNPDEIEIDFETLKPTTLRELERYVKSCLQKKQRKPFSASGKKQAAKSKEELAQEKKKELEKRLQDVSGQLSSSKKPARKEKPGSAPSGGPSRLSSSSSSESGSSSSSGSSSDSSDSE
Sequence of SWI/SNF-related matrix-associated actin-dependent regulator of chromatin subfamily A member 4 (Homo sapiens) (P51532 whole entry, the tested form may be a part): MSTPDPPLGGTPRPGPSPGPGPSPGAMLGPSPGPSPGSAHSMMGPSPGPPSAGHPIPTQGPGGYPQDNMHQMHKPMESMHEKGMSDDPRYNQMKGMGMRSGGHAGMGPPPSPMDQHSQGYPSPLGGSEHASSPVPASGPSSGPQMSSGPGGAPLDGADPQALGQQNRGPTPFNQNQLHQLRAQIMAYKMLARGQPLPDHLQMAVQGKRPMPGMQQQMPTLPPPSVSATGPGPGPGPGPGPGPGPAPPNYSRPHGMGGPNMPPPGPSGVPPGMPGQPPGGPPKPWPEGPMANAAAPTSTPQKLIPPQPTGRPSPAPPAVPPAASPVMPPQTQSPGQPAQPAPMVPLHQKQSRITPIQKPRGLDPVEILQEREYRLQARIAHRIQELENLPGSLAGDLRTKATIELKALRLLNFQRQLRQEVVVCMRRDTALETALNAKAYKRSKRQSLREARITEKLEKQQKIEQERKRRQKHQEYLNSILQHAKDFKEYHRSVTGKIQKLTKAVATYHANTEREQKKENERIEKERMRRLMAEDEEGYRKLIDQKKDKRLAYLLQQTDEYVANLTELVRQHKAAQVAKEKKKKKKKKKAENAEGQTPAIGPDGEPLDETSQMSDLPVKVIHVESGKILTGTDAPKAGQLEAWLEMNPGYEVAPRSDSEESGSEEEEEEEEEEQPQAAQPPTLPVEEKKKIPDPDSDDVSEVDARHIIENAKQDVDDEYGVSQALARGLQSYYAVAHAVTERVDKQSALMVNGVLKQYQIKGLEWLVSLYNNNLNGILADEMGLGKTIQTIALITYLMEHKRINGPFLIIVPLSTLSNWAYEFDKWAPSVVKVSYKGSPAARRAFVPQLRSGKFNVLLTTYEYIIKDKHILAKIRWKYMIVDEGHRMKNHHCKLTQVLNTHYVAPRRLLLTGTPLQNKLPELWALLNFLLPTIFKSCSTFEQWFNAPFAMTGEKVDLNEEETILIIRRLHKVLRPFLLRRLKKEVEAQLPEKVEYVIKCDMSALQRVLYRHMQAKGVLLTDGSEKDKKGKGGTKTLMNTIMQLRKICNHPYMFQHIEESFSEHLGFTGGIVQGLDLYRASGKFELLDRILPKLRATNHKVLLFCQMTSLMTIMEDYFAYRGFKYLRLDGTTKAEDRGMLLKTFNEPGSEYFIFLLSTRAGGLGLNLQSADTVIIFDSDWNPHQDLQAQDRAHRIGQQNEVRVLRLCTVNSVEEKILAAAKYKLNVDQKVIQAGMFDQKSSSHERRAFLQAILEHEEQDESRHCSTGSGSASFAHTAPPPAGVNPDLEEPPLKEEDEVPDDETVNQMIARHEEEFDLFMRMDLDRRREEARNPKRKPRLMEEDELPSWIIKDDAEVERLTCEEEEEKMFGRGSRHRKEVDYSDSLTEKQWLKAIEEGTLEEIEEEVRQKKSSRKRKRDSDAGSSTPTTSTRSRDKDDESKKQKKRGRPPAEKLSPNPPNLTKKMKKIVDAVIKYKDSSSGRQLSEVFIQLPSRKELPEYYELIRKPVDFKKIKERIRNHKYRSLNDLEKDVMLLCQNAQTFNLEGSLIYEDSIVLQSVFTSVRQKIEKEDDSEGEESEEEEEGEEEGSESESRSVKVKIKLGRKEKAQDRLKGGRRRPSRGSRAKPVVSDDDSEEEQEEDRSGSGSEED

IC50 [1]: 5.31 nM
CLH [2]: 0.043 mL/min/g
IC50 (MOLM-13): 260 nM
IC50 (MDA-MB-231): 1000 nM
CLhep predicted at 1 µM [3]: 17.9 mL/min/kg
CLH ([3]; 1 h, 1 µM): 0.043 mL/min/g
Kd [4]: 26.3 nM
Kd [5]: 1330 nM
IC50 (DU-145): 1000 nM
half-life at 1 µM [6]: 58.3 min
IC50 (THP-1): 1300 nM
IC50 [7]: 5.09 nM
Kd [8]: 38.8 nM
IC50 (MCF7): 1000 nM
ΔTm [9]: 0 °C
Kd [11]: 3670 nM
half-life at 1 µM [12]: 15.2 min
CLhep predicted at 1 µM [13]: 17.5 mL/min/kg
CLH ([13]; 1 h, 1 µM): 0.115 mL/min/g
IC50 (BXPC-3): 1000 nM
IC50 (U2OS): 1000 nM
CLH [14]: 0.115 mL/min/g
IC50 (A549): 1000 nM
Kd [15]: 23.5 nM
IC50 (U-937): 1000 nM
Kd [16]: 1200 nM
IC50 (HepG2): 1000 nM
IC50 (HT-29): 300 nM
IC50 (MV4-11; Homo sapiens, MV4-11, 120 h): 0.549 nM
IC50 (MV4-11; mv4-11): 0.55 nM
ΔTm [17]: 0 °C
SMILES: Cc1cc(F)cc(C)c1Oc1ccc(C(C)(C)O)cc1-c1cn(C)c(=O)c2cc(-c3cnc(C4CCCC4)[nH]3)oc12
IC50 (Kasumi 1): 471 nM
IC50 (CWR22R): 232 nM
IC50 at 72 h [10]: 4600 nM

IC50 [1]: 12.8 nM
Kd [4]: 89.5 nM
Kd [5]: 9780 nM
IC50 [7]: 11.1 nM
Kd [8]: 195 nM
Kd [18]: 44.2 nM
ΔTm [9]: 0.25 °C
Kd [19]: 4960 nM
Kd [11]: 3310 nM
Kd [15]: 126 nM
Kd [16]: 1070 nM
ΔTm [17]: 0 °C
SMILES: Cc1cc(F)cc(C)c1Oc1ccc(C(C)(C)O)cc1-c1cn(C)c(=O)c2cc(-c3cnc(C4CCCCC4)[nH]3)oc12

ΔTm [9]: -0.5 °C
ΔTm [17]: 0.25 °C
SMILES: Cc1cc(F)cc(C)c1Oc1ccc(C(C)(C)O)cc1-c1cn(C)c(=O)c2cc(-c3cnc(C4CC4)[nH]3)oc12

ΔTm [9]: -1 °C
ΔTm [17]: -0.5 °C
SMILES: Cc1cc(F)cc(C)c1Oc1ccc(C(C)(C)O)cc1-c1cn(C)c(=O)c2cc(-c3cnc(C4CCC4)[nH]3)oc12
